What all share (format): cell-based
Experiment [1] relates to Hh pathway-dependent osteoblast differentiation. In words: C3H10T(1/2) cell assay, alkaline phosphatase. Here is the method:
C3H10T(1/2) cells were obtained from ATCC and cultured in DMEM (Invitrogen, 11965) containing 10% (v/v) fetal bovine serum (Invitrogen, No. 26140), and 1× PenStrep (Gibco, 15140).
(§1) All test compounds were dissolved in DMSO at 50 mM, serially diluted by 1:3, 1:4 or 1:5 in a 96-well translucent microplate (Greiner bio-one, 650201) and stored at −20° C. These serial dilutions were added to assay media freshly with final DMSO concentration of 0.2% (v/v).
The C3H10T(1/2) cell assay provides a measure of Hh pathway-dependent osteoblast differentiation. C3H10T(1/2) cells were seeded into a 96-well plate (20,000 cells/well), cultured for 30 hrs and then incubated with test compounds in DMEM (Invitrogen, 11965) containing 0.5% (v/v) fetal bovine serum (Invitrogen, 26140), 1× PenStrep (Gibco, 15140), and 10% (v/v) Shh-N-conditioned medium for 44 hrs. The cells were lysed with lysis buffer (50 μL/well) containing 50 mM Tris-HCl, pH 9.5, 150 mM NaCl, 50 mM MgCl2, and 1% (v/v) Triton X-100. 10 μL of the obtained lysate were analyzed for alkaline phosphatase activities using CDP-Star Substrate (Applied Biosystems, T2146) reagent (50 μL/well) on a microplate luminometer (Veritas). Biological triplicates were analyzed for each test compounds.

The target of another experiment is T1, Gli1 (Homo sapiens, UniProt P08151).
T1 construct: expressed in transfected cells; host or cells: NIH-3T3 (mouse fibroblasts)
T1 sequence (P08151 1-1106): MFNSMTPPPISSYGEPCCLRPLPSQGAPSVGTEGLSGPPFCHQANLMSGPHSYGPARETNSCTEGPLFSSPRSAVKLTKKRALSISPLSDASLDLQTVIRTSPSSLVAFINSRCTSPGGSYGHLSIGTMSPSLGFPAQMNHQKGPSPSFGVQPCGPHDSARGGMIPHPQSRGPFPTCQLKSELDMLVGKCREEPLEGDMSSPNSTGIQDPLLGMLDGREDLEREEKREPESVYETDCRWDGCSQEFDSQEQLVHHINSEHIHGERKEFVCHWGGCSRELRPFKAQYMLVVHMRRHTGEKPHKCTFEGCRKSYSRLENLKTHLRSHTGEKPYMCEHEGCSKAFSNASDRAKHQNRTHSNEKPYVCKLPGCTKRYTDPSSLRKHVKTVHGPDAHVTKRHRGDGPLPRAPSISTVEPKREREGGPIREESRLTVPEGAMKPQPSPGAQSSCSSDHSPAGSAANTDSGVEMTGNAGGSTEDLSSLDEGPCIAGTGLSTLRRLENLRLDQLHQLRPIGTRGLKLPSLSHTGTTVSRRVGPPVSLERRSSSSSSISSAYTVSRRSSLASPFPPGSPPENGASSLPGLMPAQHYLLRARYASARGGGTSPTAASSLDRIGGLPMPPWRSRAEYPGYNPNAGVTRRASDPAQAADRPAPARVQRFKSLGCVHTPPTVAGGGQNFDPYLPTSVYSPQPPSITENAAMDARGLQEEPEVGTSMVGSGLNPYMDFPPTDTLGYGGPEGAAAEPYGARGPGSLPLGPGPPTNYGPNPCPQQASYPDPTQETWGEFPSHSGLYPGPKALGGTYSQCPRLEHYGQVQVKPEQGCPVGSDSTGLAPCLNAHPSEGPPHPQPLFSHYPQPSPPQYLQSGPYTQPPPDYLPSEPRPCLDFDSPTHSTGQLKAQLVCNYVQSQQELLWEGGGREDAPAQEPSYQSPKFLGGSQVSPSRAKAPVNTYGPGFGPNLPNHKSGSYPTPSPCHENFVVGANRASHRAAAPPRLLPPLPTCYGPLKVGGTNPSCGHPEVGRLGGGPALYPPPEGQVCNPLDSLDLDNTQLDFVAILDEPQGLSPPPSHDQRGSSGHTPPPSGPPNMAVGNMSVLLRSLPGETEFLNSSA
The experiment in a line: Overexpression of Gli1 in NIH-3T3 cells, firefly luciferase reporter. Here is the method: (§2) NIH-3T3 cells were obtained from ATCC and cultured in DMEM (Invitrogen, 11965) containing 10% (v/v) calf serum (ATCC, 30-2030), 1 mM sodium pyruvate (Invitrogen, 11360) and 1× PenStrep (Gibco, 15140).
as §1
(§3) Overexpression of Gli1 or Gli2 in NIH-3T3 cells provides a measure of Gli1- or Gli1/Gli2-induced pathway activity, respectively. NIH 3T3 cells were seeded into a 24-well plate (35,000 cells/well) and cultured for 30 hrs. […] The cells were lysed with passive lysis buffer (200 μL/well), and 10 μL of the obtained lysate were analyzed for firefly and Renilla luciferase activities using Dual-Luciferase Reporter Assay System (Promega, E1960) (50 μL/well of each reagent) on a microplate luminometer (Veritas). Biological triplicates were analyzed for each test compounds.
(In general: Reporter assays use an easily measured gene product as a stand-in for the process of interest.)

The target in a further experiment is T2, Smo (Mus musculus, UniProt P56726).
T2 construct: endogenous in cells; host or cells: NIH 3T3
The experiment in a line: Smo trafficking assay in NIH 3T3 cells. The following applies: Hh-responsive cells, ShhN stimulation. From the text:
The cells were imaged using a Plan Apochromat 63×/1.4-0.6 oil immersion objective on an upright Leica DM4500B compound microscope.

The next experiment relates to Gli3. In words: Hh ligand-dependent Gli3 processing in Shh-EGFP cells.
A further experiment addresses Gli2 (Homo sapiens, UniProt P10070). In words: Overexpression of Gli2 in NIH-3T3 cells, firefly luciferase reporter. Details: expressed in transfected cells; host or cells: NIH-3T3 (mouse fibroblasts). Here is the method:
as §2, §1, §3

T2 sequence (P56726 33-793): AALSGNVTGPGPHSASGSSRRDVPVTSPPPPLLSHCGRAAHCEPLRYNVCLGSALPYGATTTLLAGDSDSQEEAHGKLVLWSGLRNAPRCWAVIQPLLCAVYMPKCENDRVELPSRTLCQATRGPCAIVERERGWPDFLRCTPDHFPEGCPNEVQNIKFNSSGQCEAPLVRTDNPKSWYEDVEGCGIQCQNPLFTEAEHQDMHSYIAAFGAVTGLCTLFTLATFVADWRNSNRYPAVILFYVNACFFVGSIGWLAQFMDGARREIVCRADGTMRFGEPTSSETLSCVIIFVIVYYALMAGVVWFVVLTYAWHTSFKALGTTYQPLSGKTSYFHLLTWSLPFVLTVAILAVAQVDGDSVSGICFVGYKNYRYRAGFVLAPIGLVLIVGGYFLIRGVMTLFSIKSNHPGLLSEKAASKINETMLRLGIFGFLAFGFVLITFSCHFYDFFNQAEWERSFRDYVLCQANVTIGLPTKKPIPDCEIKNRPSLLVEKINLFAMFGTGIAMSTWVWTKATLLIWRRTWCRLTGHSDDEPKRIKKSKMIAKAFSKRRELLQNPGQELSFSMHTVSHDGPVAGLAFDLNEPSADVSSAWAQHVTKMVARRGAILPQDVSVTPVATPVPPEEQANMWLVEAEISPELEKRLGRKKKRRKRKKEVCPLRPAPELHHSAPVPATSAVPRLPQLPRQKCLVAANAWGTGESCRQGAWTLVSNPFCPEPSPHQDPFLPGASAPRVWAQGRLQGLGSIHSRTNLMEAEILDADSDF
Sequence of Gli2 (P10070 whole entry, species assumed): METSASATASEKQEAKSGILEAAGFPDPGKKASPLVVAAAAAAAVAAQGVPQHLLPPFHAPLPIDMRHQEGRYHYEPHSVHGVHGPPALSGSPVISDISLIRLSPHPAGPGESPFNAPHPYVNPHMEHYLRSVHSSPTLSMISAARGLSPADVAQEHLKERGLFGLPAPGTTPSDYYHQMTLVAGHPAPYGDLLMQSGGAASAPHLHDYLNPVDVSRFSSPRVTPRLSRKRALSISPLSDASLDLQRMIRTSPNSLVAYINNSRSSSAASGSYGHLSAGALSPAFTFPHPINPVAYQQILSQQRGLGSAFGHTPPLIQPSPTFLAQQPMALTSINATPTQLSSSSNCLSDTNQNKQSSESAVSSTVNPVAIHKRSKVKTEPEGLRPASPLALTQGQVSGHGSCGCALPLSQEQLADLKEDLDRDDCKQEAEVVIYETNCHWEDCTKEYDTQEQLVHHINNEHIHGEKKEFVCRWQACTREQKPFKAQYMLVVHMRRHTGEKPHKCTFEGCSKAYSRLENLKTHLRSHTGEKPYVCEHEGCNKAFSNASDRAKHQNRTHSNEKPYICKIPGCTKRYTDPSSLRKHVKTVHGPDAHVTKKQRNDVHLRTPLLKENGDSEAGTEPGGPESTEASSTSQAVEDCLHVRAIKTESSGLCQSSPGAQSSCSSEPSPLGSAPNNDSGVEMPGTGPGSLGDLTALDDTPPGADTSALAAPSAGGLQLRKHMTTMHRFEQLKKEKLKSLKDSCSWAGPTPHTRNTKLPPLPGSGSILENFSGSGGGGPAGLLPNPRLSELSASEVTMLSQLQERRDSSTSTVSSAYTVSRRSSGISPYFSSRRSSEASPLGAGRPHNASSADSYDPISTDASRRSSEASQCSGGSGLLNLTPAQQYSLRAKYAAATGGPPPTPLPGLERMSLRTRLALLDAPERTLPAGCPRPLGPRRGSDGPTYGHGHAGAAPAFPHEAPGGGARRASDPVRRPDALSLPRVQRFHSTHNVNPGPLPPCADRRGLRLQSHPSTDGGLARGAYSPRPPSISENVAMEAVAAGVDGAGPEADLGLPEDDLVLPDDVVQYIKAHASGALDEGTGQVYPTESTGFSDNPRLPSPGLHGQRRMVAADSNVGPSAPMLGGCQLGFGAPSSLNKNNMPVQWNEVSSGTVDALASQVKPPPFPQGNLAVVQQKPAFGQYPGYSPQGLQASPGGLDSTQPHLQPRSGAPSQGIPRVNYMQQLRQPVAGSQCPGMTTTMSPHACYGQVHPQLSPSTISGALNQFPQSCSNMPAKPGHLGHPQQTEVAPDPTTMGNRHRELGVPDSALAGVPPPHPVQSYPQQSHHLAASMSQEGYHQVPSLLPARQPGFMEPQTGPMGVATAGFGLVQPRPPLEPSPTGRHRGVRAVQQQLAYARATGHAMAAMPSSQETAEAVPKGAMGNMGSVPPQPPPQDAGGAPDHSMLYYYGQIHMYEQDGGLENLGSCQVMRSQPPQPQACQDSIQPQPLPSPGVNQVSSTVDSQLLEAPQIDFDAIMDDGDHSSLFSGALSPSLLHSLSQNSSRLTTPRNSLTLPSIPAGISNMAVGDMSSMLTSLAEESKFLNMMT
Protocol for Gli3: Each compound or vehicle treatment was conducted in the presence or absence of 10% (v/v) Shh-N-conditioned medium. The cells were then lysed by incubation with SDS-PAGE loading buffer composed of 50 mM Tris-HCl, pH 6.8, 2% (w/v) SDS, 8% (v/v) glycerol, 100 mM DTT, 0.1 mg/mL bromophenol blue, EDTA-free protease inhibitor cocktail (Roche) and Phosstop (Roche) for 5 min in a cold room. […] The membranes were dehydrated with methanol and probed overnight at 4° C. with goat polyclonal anti-Gli3 antibody (1 μg/mL; R & D Systems, AF3690) in PBS containing 4% (w/v) non-fat dry milk and 0.01% (v/v) Tween-20 (immunoblot blocking buffer). […] Band intensities of Gli3FL and Gli3R were quantified using ImageJ64 software (NIH), and three independent experiments were used to determine the average Gli3FL/Gli3R ratio for each compound.

For `CCOc1ccc(-[n+]2cc(-c3ccc(Br)cc3)n3c2CCCCC3)cc1` [Compound A-1], half-maximal inhibition in experiment [1] (Osteoblast, C3H10T(½) w/ ShhN) (IC50) was put at 5.2 ± 3.7 µM. Further, the “Differentiation of C3H10T1/2 cells into alkaline-phosphatase-expressing osteoblasts” value in experiment [1] (ShhN-conditioned medium) was “blocked”. Moreover, the “Exogenous Gli1 activity” value on Gli1 is “potently blocked”. In addition, the “Effect on Smo localization / trafficking” value on Smo was “did not affect Smo localization”. For the same compound, the “Effect on Gli3FL phosphorylation” value in the experiment on Gli3 is on record as “Nor did the compound prevent Gli3FL phosphorylation”. In addition, the “Effect on Gli3 processing, Gli3FL/Gli3R ratio” value in the experiment on Gli3 (ShhN stimulation) was “did not perturb Gli3 processing”. Also, the “Hh reporter expression induced by exogenous Gli2” value at Gli2 is listed as “only partially inhibited”.
